Measured values reported in BindingDB's records for patent US20250313563 (The Broad Institute, 2025).
Values joined by “and” are separate entries in the source; they are usually repeats but may differ in a detail not shown here. Equal values may be shown once.

Tests used:
[1] = molecular target: Glycogen synthase kinase-3 alpha (Homo sapiens, UniProt P49840); assay: TR-FRET Assay
Procedure, shortened: (§1)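 Enzyme and test compound were first incubated together for 30 minutes in assay buffer. The kinase reaction followed and was stopped with EDTA. The pSer641 signal was read by time-resolved FRET.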

[2] = molecular target: Glycogen synthase kinase-3 beta (Homo sapiens, UniProt P49841); assay: TR-FRET Assay
Procedure, shortened: as §1

Chain of Glycogen synthase kinase-3 alpha (P49840 whole entry): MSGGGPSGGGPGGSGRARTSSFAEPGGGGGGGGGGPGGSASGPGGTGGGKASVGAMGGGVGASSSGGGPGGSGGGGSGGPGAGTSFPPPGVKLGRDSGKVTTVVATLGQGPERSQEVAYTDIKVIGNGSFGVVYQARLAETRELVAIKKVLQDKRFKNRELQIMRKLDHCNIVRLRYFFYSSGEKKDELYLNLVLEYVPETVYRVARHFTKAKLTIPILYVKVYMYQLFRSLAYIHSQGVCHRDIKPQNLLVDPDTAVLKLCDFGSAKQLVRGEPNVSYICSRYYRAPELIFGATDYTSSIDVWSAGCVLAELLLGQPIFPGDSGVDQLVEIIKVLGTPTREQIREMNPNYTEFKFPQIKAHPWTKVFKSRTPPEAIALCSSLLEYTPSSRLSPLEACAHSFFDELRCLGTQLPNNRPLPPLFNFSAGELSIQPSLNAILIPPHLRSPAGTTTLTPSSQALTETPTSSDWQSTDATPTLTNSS
Chain of Glycogen synthase kinase-3 beta (P49841 whole entry): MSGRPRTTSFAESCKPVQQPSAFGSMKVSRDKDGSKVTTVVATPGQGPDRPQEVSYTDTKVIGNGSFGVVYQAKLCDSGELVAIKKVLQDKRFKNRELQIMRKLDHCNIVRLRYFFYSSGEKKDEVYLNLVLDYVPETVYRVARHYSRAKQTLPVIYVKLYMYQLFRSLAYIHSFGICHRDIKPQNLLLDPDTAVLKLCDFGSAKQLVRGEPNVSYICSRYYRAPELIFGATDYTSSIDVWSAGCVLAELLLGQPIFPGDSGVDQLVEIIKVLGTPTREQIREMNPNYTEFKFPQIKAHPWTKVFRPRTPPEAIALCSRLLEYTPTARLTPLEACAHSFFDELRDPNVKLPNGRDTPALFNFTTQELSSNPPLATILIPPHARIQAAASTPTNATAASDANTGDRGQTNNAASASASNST

SMILES | IC50 [1] | IC50 [2]
COc1cccc(C2(C)C3=C(N=NC3)NC3=C2C(=O)CC(C)(C)C3)c1 (configuration not stated) [US20250313563, Compound 792342] | 100 to 1000 nM | 100 to 1000 nM
CC[C@]1(c2cccc(N3C[C@H](C)[C@@H](C)C3)c2)C2=CN=NC2NC2=C1C(=O)CC(C)(C)C2 (some centres not stated) [US20250313563, Compound 924312] | 100 to 1000 nM | 1000 to 5000 nM
CC1(C)CC(=O)C2=C(C1)NC1=C(CN=N1)[C@]21CC[C@@H](C(F)(F)F)C1 [US20250313563, Compound 952437] | 100 to 1000 nM | 100 to 1000 nM
CC[C@@]1(c2cccc(-c3ccncc3F)c2)C2=CN=NC2NC2=C1C(=O)CC(C)(C)C2 (some centres not stated) [US20250313563, Compound 943519] | 100 to 1000 nM | 1000 to 5000 nM
CCC1(c2cccc(-c3cc(C)nnc3C)c2)C2=C(CC(C)(C)NC2=O)NC2N=NC(C)=C21 (configuration not stated) [US20250313563, Compound 948765] | < 100 nM | < 100 nM
CC[C@]1(c2cccc(-c3cc(OC)nc4ccccc34)c2)C2=CN=NC2NC2=C1C(=O)NC(C)(C)C2 (some centres not stated) [US20250313563, Compound 948647] | > 5000 nM | > 5000 nM
CC[C@@]1(c2cccc(N3C[C@@H](C)[C@H](C)C3)c2)C2=CN=NC2NC2=C1C(=O)CC(C)(C)C2 (some centres not stated) [US20250313563, Compound 924543] | 1000 to 5000 nM | > 5000 nM
CC[C@]1(c2cccc(N(C)c3ncccn3)c2)C2=CN=NC2NC2=C1C(=O)CC(C)(C)C2 (some centres not stated) [US20250313563, Compound 911980] | < 100 nM | < 100 nM and 100 to 1000 nM
CC[C@@]1(c2cccc(N(C)c3nccc(C)n3)c2)C2=CN=NC2NC2=C1C(=O)CC(C)(C)C2 (some centres not stated) [US20250313563, Compound 945329] | 100 to 1000 nM | 1000 to 5000 nM
CCC1(c2cccc(-c3ccnc(C)c3)c2)C2=CN=NC2NC2=C1C(=O)N(C)C(C)(C)C2 (configuration not stated) [US20250313563, Compound 948302] | < 100 nM | 100 to 1000 nM
CC[C@@]1(c2cccc(C(F)(F)F)c2)C2=CN=NC2NC2=C1C(=O)N(c1cc(C)n(C)n1)CC2 (some centres not stated) [US20250313563, Compound 951954] | > 5000 nM | > 5000 nM
CC[C@]1(c2cccc(-c3ccnc(C)c3C)c2)C2=C(CC(C)(C)NC2=O)NC2N=NC(C(F)(F)F)=C21 (some centres not stated) [US20250313563, Compound 948181] | 100 to 1000 nM | 100 to 1000 nM
CC1(C)CC(=O)C2=C(NC3N=NC=C3C23CCCCC3)[C@H]1F (some centres not stated) [US20250313563, Compound 951711] | < 100 nM | < 100 nM
CC[C@@]1(c2cccc(C(F)(F)F)c2)C2=C(NC3=NN=CC31)c1ccccc1C2=O (some centres not stated) [US20250313563, Compound 949742] | 100 to 1000 nM | 100 to 1000 nM
Cc1ccc(S(=O)(=O)N2CCC3(CC2)C2=C(N=NC2)NC2=C3C(=O)CC(C)(C)C2)c(C)c1 [US20250313563, Compound 947468] | < 100 nM | < 100 nM
CC1(C)CC(=O)C2=C(C1)NC1=C(CN=N1)[C@@]21CCO[C@@H](C(F)(F)F)C1 [US20250313563, Compound 884024] | 1000 to 5000 nM | > 5000 nM
CCC1(c2cccc(-c3ccnc(C)c3)c2)C2=CN=NC2NC2=C1C(=O)NC(C)C2 (configuration not stated) [US20250313563, Compound 913357] | 100 to 1000 nM | 1000 to 5000 nM
CC[C@]1(c2ccc(OC(C)C)cc2)C2=C(CC(C)(C)CC2=O)NC2N=NC(C(F)(F)F)=C21 (some centres not stated) [US20250313563, Compound 947868] | < 100 nM | < 100 nM
CCC1(c2cccc(-c3cnn4c3CCCC4)c2)C2=C(CC(C)(C)CC2=O)NC2N=NC(C)=C21 (configuration not stated) [US20250313563, Compound 884002] | < 100 nM | < 100 nM
Cc1cc([C@H]2CC[C@]3(CC2)C2=C(N=NC2)NC2=C3C(=O)CC(C)(C)C2)ccn1 [US20250313563, Compound 948415] | < 100 nM | < 100 nM
CC[C@]1(c2cccc(-c3ccnc(C)c3C)c2)C2=C(CC(C)(C)CC2=O)NC2N=NC(C(F)(F)F)=C21 (some centres not stated) [US20250313563, Compound 947328] | 100 to 1000 nM | 100 to 1000 nM
CC[C@@]1(c2cccc(-c3cnnc(C)c3)c2)C2=CN=NC2NC2=C1C(=O)NC(C)(C)C2 (some centres not stated) [US20250313563, Compound 944074] | < 100 nM and 100 to 1000 nM | 100 to 1000 nM and > 5000 nM
CC[C@]1(c2ccccc2)C2=CN=NC2NC2=C1C(=O)[C@H](F)C(C)(C)C2 (some centres not stated) [US20250313563, Compound 826768] | < 100 nM | 100 to 1000 nM

SMILES | IC50 [1] | IC50 [2]
CC[C@]1(c2cccc(N(C)c3cccc(C)n3)c2)C2=CN=NC2NC2=C1C(=O)CC(C)(C)C2 (some centres not stated) [US20250313563, Compound 932644] | > 5000 nM | > 5000 nM
CC[C@@]1(c2cccc(-c3cnc(C)n3C)c2)C2=CN=NC2NC2=C1C(=O)CC(C)(C)C2 (some centres not stated) [US20250313563, Compound 945612] | 1000 to 5000 nM | > 5000 nM
CCC1(c2cccc(-c3ccnn3C)c2)C2=C(CC(C)(C)CC2=O)NC2N=NC(C)=C21 (configuration not stated) [US20250313563, Compound 883992] | < 100 nM | < 100 nM
CC(C)S(=O)(=O)N1CCC2(CC1)C1=C(N=NC1)NC1=C2C(=O)CC(C)(C)[C@H]1F [US20250313563, Compound 951701] | < 100 nM and 100 to 1000 nM | < 100 nM and 1000 to 5000 nM
CC[C@]1(c2cccc(OC)c2)C2=C(CC(C)(C)CC2=O)NC2N=NC(C(=O)OC)=C21 (some centres not stated) [US20250313563, Compound 901479] | < 100 nM | < 100 nM
CC[C@@]1(c2ccccc2)C2=C(N=NC2)NC2=C1C(=O)[C@@H]1CC[C@H]2C1 [US20250313563, Compound 791269] | 100 to 1000 nM | 100 to 1000 nM
CCC1(c2cccc(Nc3ncccn3)c2)C2=CN=NC2NC2=C1C(=O)CC(C)(C)C2 (configuration not stated) [US20250313563, Compound 913334] | < 100 nM | 100 to 1000 nM
CCC1(c2cccc(N(C)c3ncccn3)c2)C2=C(CC(C)(C)NC2=O)NC2N=NC(C)=C21 (configuration not stated) [US20250313563, Compound 948175] | < 100 nM | < 100 nM
CC1(C)CC(=O)C2=C(C1)NC1=C(CN=N1)C2(C)c1cc(Cl)ccc1F (configuration not stated) [US20250313563, Compound 810377] | 100 to 1000 nM | 1000 to 5000 nM
CCC1(c2cccc(Br)c2)C2=CN=NC2NC2=C1C(=O)C(F)C(C)(C)C2 (configuration not stated) [US20250313563, Compound 826764] | < 100 nM | 100 to 1000 nM
CCC1(c2cccc(S(=O)(=O)CC3CC3)c2)C2=C(CC(C)(C)NC2=O)NC2=C1C(C(F)(F)F)N=N2 (configuration not stated) [US20250313563, Compound 948179] | < 100 nM | < 100 nM
CCC1(c2cccc(N3CCOCC3)c2)C2=C(CC(C)(C)NC2=O)NC2N=NC(C(F)(F)F)=C21 (configuration not stated) [US20250313563, Compound 947863] | < 100 nM | < 100 nM
C[C@@H]1CCC[C@]2(C1)C1=C(N=NC1)NC1=C2C(=O)CC(C)(C)C1 [US20250313563, Compound 874537] | 100 to 1000 nM | 100 to 1000 nM
CCC1(c2cccc(N(C)C(=O)C3CCOCC3)c2)C2=CN=NC2NC2=C1C(=O)CC(C)(C)C2 (configuration not stated) [US20250313563, Compound 912070] | < 100 nM | 100 to 1000 nM
C[C@@H]1C[C@@H]2C[C@@]3(C[C@@H]2C1)C1=CN=NC1NC1=C3C(=O)CC(C)(C)C1 (some centres not stated) [US20250313563, Compound 943898] | < 100 nM | < 100 nM
CC[C@@]1(c2cccc(-c3cnn(C4CCCCC4)c3)c2)C2=CN=NC2NC2=C1C(=O)NC(C)(C)C2 (some centres not stated) [US20250313563, Compound 951707] | 100 to 1000 nM | 1000 to 5000 nM
CC[C@@]1(c2cccc(-c3cnn(C4CC4(F)F)c3)c2)C2=CN=NC2NC2=C1C(=O)NC(C)(C)C2 (some centres not stated) [US20250313563, Compound 950060] | < 100 nM | 100 to 1000 nM
CC[C@]1(c2cccc(-c3ccnc(C)c3)c2)C2=CN=NC2NC2=C1C(=O)N[C@@]1(CCCOC1)C2 (some centres not stated) [US20250313563, Compound 948144] | < 100 nM | 100 to 1000 nM
CC1(C)CC(=O)C2=C(C1)NC1=C(CN=N1)[C@]21CC[C@H](c2ccncc2)CC1 [US20250313563, Compound 949321] | < 100 nM | < 100 nM
CC1(C)CC(=O)C2=C(C1)NC1=C(CN=N1)[C@]21CC[C@H](C(F)(F)F)C1 [US20250313563, Compound 952435] | < 100 nM | 100 to 1000 nM
CC[C@@]1(c2cccc(S(=O)(=O)C3CC3)c2)C2=CN=NC2NC2=C1C(=O)N(C)C(C)(C)C2 (some centres not stated) [US20250313563, Compound 949177] | < 100 nM and 100 to 1000 nM | < 100 nM and 1000 to 5000 nM
CC[C@@]1(c2cccc(-c3cnn(-c4ccncn4)c3)c2)C2=CN=NC2NC2=C1C(=O)NC(C)(C)C2 (some centres not stated) [US20250313563, Compound 952016] | 100 to 1000 nM | 1000 to 5000 nM
CCC1(c2cccc(N3CCCC3)c2)C2=CN=NC2NC2=C1C(=O)NC(C)(C)C2 (configuration not stated) [US20250313563, Compound 945723] | 100 to 1000 nM | 1000 to 5000 nM
